Experimental data taken from ChEMBL document CHEMBL1153301, “Identification and SAR of novel diaminopyrimidines. Part 1: The discovery of RO-4, a dual P2X(3)/P2X(2/3) antagonist for the treatment of pain” (Bioorg Med Chem Lett, 2009).

Experiments:
P2X purinoceptor 3 = biological target: T1, P2X purinoceptor 3 (Rattus norvegicus, UniProt P49654); experiment: Antagonist activity at rat recombinant P2X3 receptor expressed in CHO cells by FLIPR assay
T1 sequence (P49654 whole entry): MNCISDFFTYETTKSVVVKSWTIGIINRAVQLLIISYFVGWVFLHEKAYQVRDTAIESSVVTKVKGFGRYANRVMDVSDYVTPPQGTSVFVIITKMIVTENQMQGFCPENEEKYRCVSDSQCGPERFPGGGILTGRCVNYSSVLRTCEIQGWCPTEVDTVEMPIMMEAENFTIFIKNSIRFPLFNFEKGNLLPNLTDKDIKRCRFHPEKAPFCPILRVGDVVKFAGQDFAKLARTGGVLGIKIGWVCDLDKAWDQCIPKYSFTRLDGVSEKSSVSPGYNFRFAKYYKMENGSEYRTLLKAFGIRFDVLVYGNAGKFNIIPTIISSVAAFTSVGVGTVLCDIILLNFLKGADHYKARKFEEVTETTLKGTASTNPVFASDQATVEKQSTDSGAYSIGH

[1] = biological target: T2, P2X2/P2X3 heterotrimeric receptor (Homo sapiens, UniProt P56373+Q9UBL9); experiment: Antagonist activity at human recombinant P2X2/3 receptor expressed in human 1321N1 cells by FLIPR assay; format: functional, cell-based
T2 sequence (Q9UBL9 whole entry): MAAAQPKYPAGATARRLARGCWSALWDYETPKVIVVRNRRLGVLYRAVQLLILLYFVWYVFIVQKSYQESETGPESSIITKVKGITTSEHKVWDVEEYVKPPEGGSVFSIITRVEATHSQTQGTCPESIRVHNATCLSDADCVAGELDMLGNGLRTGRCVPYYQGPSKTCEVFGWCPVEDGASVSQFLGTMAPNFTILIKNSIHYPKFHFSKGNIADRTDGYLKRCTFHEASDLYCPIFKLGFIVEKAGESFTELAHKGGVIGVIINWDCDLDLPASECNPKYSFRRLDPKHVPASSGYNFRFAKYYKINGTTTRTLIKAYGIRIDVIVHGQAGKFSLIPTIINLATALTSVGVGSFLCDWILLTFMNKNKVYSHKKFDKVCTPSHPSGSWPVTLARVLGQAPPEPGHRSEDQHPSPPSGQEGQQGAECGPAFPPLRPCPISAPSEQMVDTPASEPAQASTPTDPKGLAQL
T2 sequence (P56373 whole entry): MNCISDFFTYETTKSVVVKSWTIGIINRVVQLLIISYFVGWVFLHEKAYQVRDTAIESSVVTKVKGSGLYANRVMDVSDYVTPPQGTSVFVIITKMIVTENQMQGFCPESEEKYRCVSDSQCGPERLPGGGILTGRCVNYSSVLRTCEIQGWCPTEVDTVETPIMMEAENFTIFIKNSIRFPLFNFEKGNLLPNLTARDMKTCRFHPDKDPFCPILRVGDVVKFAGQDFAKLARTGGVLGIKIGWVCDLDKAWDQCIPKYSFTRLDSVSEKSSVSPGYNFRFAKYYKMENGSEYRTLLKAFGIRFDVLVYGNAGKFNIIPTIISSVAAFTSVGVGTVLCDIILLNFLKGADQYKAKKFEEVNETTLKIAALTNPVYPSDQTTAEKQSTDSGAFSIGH

[2] = Inhibition of ML1 receptor
Histamine H2 receptor = Histamine H2 receptor (Homo sapiens, UniProt P25021); experiment: Inhibition of histamine H2 receptor
P2X purinoceptor 5 = P2X purinoceptor 5 (Homo sapiens, UniProt Q93086); experiment: Inhibition of P2X5 receptor
P2X purinoceptor 7 = biological target: T3, P2X purinoceptor 7 (Homo sapiens, UniProt Q99572); experiment: Inhibition of P2X7 receptor
T3 sequence (Q99572 whole entry): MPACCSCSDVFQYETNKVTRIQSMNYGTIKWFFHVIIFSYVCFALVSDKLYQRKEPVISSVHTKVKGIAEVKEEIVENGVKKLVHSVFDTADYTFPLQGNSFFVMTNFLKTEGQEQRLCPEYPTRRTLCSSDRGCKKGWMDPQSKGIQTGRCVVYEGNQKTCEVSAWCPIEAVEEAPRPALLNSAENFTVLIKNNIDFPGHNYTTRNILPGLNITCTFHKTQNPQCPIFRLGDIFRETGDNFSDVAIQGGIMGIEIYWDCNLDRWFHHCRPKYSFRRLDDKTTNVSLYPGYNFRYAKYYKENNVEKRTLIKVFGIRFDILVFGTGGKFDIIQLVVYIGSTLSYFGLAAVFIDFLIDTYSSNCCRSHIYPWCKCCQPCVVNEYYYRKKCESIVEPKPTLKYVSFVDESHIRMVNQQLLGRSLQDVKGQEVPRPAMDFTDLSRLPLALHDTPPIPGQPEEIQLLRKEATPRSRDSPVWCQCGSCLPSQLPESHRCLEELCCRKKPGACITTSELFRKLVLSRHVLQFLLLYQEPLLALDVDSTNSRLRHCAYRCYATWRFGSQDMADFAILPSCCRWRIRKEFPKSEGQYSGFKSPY

[3] = biological target: T4, 5-hydroxytryptamine receptor 3A (Homo sapiens, UniProt P46098); experiment: Inhibition of 5HT3 receptor
T4 sequence (P46098 whole entry): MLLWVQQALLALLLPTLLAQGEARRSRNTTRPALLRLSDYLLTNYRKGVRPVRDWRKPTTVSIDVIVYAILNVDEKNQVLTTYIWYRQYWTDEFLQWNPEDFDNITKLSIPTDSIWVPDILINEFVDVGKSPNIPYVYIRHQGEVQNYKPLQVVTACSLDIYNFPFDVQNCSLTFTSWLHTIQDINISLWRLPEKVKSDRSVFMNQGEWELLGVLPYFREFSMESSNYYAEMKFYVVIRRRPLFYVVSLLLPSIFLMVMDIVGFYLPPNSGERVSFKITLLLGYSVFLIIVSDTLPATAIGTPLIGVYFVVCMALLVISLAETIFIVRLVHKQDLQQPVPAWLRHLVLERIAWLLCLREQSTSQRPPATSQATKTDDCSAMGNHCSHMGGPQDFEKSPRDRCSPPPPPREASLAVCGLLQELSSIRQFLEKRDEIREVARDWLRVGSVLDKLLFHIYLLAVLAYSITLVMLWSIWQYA

P2X purinoceptor 1 = biological target: T5, P2X purinoceptor 1 (Homo sapiens, UniProt P51575); experiment: Inhibition of P2X1 receptor
T5 sequence (P51575 whole entry): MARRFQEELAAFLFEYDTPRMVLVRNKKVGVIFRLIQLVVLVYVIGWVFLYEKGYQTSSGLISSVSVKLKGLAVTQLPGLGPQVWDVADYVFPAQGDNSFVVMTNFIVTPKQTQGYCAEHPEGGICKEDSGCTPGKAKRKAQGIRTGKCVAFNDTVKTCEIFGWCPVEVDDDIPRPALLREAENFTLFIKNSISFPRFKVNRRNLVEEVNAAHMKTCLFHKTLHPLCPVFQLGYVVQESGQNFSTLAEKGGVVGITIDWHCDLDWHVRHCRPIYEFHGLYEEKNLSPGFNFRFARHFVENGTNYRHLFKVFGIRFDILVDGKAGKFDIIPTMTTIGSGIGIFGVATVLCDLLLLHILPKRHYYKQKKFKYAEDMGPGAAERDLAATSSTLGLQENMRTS

P2X purinoceptor 4 = biological target: T6, P2X purinoceptor 4 (Homo sapiens, UniProt Q99571); experiment: Inhibition of P2X4 receptor
T6 sequence (Q99571 whole entry): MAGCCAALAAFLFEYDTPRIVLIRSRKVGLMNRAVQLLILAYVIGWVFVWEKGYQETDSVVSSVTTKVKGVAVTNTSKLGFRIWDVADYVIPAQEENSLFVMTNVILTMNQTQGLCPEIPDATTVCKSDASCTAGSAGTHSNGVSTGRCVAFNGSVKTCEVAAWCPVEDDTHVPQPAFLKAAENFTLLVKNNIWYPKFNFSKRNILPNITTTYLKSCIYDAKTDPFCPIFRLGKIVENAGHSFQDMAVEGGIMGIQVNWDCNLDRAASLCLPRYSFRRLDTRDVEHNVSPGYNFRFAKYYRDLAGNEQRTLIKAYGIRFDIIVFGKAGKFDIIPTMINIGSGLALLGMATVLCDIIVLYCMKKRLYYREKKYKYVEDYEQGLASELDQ

P2X purinoceptor 2 = biological target: T7, P2X purinoceptor 2 (Homo sapiens, UniProt Q9UBL9); experiment: Inhibition of P2X2 receptor
T7 sequence (Q9UBL9 whole entry): T2 sequence (Q9UBL9 whole entry)

[4] = Clearance in dog; format: ADME, organism-based, Canis lupus familiaris; settings: in vivo
[5] = biological target: 5-hydroxytryptamine receptor 2A (Homo sapiens, UniProt P28223); experiment: Inhibition of 5HT2A receptor
[6] = biological target: 5-hydroxytryptamine receptor 6 (Homo sapiens, UniProt P50406); experiment: Inhibition of 5HT6 receptor
Caco-2 = experiment: Ratio of permeability from basolateral to apical side over apical to basolateral side in human Caco-2 cells; format: ADME, cell-based

Sequence of 5-hydroxytryptamine receptor 6 (P50406 whole entry): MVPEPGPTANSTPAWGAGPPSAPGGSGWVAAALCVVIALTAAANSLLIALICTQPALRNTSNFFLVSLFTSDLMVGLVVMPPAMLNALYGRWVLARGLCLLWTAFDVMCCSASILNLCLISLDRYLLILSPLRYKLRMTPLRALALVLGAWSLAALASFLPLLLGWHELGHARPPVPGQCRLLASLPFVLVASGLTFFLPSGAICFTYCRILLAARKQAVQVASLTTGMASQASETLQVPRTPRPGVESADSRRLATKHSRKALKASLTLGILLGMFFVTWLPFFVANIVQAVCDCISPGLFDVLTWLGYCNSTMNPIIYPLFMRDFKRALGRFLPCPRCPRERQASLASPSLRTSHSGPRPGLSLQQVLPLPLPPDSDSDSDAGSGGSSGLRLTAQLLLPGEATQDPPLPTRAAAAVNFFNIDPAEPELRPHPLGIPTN
Sequence of 5-hydroxytryptamine receptor 2A (P28223 whole entry): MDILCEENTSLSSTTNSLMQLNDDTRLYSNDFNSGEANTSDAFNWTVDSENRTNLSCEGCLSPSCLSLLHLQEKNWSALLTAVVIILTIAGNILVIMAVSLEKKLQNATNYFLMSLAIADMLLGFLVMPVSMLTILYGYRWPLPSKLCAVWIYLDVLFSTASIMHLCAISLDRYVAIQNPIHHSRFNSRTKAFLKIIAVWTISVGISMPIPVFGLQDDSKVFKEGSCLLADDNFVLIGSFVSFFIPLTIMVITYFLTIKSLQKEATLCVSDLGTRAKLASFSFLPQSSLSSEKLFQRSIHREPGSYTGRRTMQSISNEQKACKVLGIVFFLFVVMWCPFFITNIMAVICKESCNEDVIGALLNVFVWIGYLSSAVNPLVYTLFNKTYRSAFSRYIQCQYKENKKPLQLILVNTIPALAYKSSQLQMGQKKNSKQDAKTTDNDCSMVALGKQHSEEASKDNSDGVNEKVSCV
Sequence of Histamine H2 receptor (P25021 whole entry): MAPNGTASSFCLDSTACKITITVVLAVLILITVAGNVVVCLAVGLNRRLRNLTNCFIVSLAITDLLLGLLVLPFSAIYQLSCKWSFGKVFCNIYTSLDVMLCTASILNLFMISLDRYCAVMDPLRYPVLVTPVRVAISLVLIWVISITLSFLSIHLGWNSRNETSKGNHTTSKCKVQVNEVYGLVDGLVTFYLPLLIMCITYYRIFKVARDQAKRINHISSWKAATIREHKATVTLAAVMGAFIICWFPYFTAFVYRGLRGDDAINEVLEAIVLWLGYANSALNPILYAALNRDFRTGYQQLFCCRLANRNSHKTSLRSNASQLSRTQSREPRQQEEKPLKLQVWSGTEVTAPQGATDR
Sequence of P2X purinoceptor 5 (Q93086 whole entry): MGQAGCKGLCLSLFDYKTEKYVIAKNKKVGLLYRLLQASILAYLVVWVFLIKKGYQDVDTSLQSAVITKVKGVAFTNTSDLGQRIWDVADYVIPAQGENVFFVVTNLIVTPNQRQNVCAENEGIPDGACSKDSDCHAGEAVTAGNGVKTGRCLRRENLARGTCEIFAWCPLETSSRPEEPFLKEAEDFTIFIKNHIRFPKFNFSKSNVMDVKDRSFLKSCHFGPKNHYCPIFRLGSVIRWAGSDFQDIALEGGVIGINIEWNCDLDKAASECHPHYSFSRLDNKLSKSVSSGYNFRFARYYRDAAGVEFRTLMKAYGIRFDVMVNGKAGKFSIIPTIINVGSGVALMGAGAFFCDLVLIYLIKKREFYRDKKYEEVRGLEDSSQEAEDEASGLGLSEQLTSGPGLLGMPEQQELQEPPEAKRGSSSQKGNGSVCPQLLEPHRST

Q: Which IC50 (P2X purinoceptor 3) does the source give for CC(C)c1ccccc1Oc1cnc(N)nc1N here?
A: Its IC50 is 3.98 µM.

Q: And the IC50 [1]?
A: Its IC50 is 2 µM.

Q: With COc1cc(Oc2cnc(N)nc2N)c(C(C)C)cc1C#N as the compound, how does the IC50 (P2X purinoceptor 3) read?
A: Its IC50 is over 10 µM.

Q: And the IC50 [1]?
A: The IC50 was over 10 µM.

Q: With COc1cc(C(C)C)c(Oc2cnc(N)nc2N)cc1F as the compound, how does the IC50 (P2X purinoceptor 3) read?
A: Its IC50 is 3.16 µM.

Q: What about the IC50 [1] of the same compound?
A: The IC50 was 1.58 µM.

Q: For COc1cc(C(C)C)c(Oc2cnc(N)nc2N)cc1-c1ccccc1, which IC50 (P2X purinoceptor 3) is on record?
A: Its IC50 is 1 µM.

Q: And the IC50 [1]?
A: The IC50 was 2.51 µM.

Q: Which results are given for COc1cc(C(C)C)c(Oc2cnc(N)nc2N)cc1Br?
A: IC50 (P2X purinoceptor 3): 0.02 µM; IC50 [1]: 0.0794 µM

Q: For C#Cc1cc(Oc2cnc(N)nc2N)c(C(C)C)cc1OC, which IC50 [1] is on record?
A: The IC50 was 0.0126 µM.

Q: With COc1cc(Cc2cnc(N)nc2N)c(C(C)(C)C)cc1OC as the compound, how does the IC50 [1] read?
A: Its IC50 is over 10 µM.

Q: Which results are given for COc1cc(C(C)C)c(Oc2cnc(N)nc2N)cc1C(=O)O?
A: IC50 (P2X purinoceptor 3): 0.158 µM; IC50 [1]: 0.316 µM

Q: Which IC50 (P2X purinoceptor 3) does the source give for CCc1cc(Oc2cnc(N)nc2N)c(C(C)C)cc1OC here?
A: Its IC50 is 0.0501 µM.

Q: What about the IC50 [1] of the same compound?
A: Its IC50 is 0.158 µM.

Q: What does the source list for COc1ccc(Oc2cnc(N)nc2N)c(C(C)C)c1?
A: IC50 (P2X purinoceptor 3): 1.58 µM; IC50 [1]: 0.398 µM

Q: Which results are given for CCc1cc(OC)c(OC)cc1CCc1cnc(N)nc1N?
A: IC50 (P2X purinoceptor 3): > 10 µM; IC50 [1]: > 10 µM

Q: For COc1cc(C(C)C)c(Oc2cnc(N)nc2N)cc1C(N)=O, which IC50 (P2X purinoceptor 3) is on record?
A: The IC50 was 0.1 µM.

Q: What about the IC50 [1] of the same compound?
A: The IC50 was 1.58 µM.

Q: What does the source list for COc1cc(C(C)C)c(Oc2cnc(N)nc2N)cc1-c1nnn[nH]1?
A: IC50 (P2X purinoceptor 3): 0.0398 µM; IC50 [1]: 0.316 µM

Q: For COc1cc(Oc2cnc(N)nc2N)c(C(C)C)cc1-c1ccc(F)cc1, which IC50 (P2X purinoceptor 3) is on record?
A: The IC50 was 2.51 µM.

Q: What about the IC50 [1] of the same compound?
A: Its IC50 is 7.94 µM.

Q: Which IC50 (P2X purinoceptor 3) does the source give for COc1cc(Oc2cnc(N)nc2N)c(C(C)C)cc1Br here?
A: Its IC50 is 0.0794 µM.

Q: What about the IC50 [1] of the same compound?
A: The IC50 was 0.316 µM.

Q: For CCCc1cc(OC)c(OC)cc1Cc1cnc(N)nc1N, which IC50 [1] is on record?
A: The IC50 was over 10 µM.

Q: For COc1cc(C(C)C)c(Oc2cnc(N)nc2N)cc1I, which Ki [2] is on record?
A: The Ki was 1 µM.

Q: And the Ki (Histamine H2 receptor)?
A: The Ki was 1 µM.

Q: What about the IC50 (P2X purinoceptor 5) of the same compound?
A: The IC50 was over 10 µM.

Q: And the IC50 (P2X purinoceptor 7)?
A: The IC50 was over 10 µM.

Q: And the Ki [3]?
A: Its Ki is 1 µM.

Q: What about the pIC50 (P2X purinoceptor 3; cho) of the same compound?
A: The pIC50 was 8.

Q: What about the IC50 (P2X purinoceptor 1) of the same compound?
A: The IC50 was over 10 µM.

Q: And the IC50 (P2X purinoceptor 4)?
A: Its IC50 is over 10 µM.

Q: And the IC50 (P2X purinoceptor 2)?
A: The IC50 was over 10 µM.

Q: What about the clearance [4] of the same compound?
A: The clearance was 13 mL/min/kg.

Q: And the Ki [5]?
A: Its Ki is 1 µM.

Q: And the Ki [6]?
A: The Ki was 1 µM.

Q: What about the Ratio (Caco-2) of the same compound?
A: The Ratio was 1.

Q: What about the IC50 [1] of the same compound?
A: Its IC50 is 0.0794 µM.

Q: What does the source list for COc1cc(C)c(Cc2cnc(N)nc2N)cc1OC [ORMETOPRIM]?
A: IC50 (P2X purinoceptor 3): > 10 µM; IC50 [1]: > 10 µM
